Data set [1] relates to Mycobacterium tuberculosis. Kind of data set: Anti-mycobacterial activity against Mycobacterium tuberculosis H37Rv. The data set is classed as functional.
A short description of data set [2]: Selectivity index, ratio of CC50 for cytotoxicity in African green monkey Vero cells to MIC for anti-mycobacterial activity against Mycobacterium tuberculosis H37Rv. The data set is classed as toxicity, cell-based. The note with it: read-out: Selectivity Index.
A short description of data set [3]: Cytotoxicity in African green monkey Vero cells. It is filed as cell-based. Conditions: chlorocebus sabaeus.
Data set [4] concerns Mycobacterium tuberculosis. Kind of data set: Potency index, ratio of MIC for ciprofloxacin to MIC for test compound for anti-mycobacterial activity against Mycobacterium tuberculosis H37Rv. It is filed as functional.

Converted amounts (≈) assume the structure as drawn.

Experimental findings from ChEMBL document CHEMBL4385656, “Ciprofloxacin-1,2,3-triazole-isatin hybrids tethered via amide: Design, synthesis, and in vitro anti-mycobacterial activity evaluation” (Bioorg Med Chem Lett, 2019) are described below.

In general, MIC refers to the lowest concentration found to suppress growth. By CC50 is commonly meant the concentration giving 50% cytotoxicity.

`NNC(=O)c1ccncc1` [ISONIAZID]: the minimum inhibitory concentration (MIC) in data set [1] worked out at 0.12 µg/mL (≈ 0.875 µM). The selectivity ratio in data set [2] stood at 512. Besides, the CC50 in data set [3] turned out to be 64 µg/mL (≈ 467 µM).
In data set [1], `CO/N=C1/C(=O)N(Cc2cn(CC(=O)N3CCN(c4cc5c(cc4F)c(=O)c(C(=O)O)cn5C4CC4)CC3)nn2)c2ccc(F)cc21` registered a minimal inhibitory concentration (MIC) of 8 µg/mL (≈ 12.4 µM). Further, the selectivity ratio in data set [2] was 8. This molecule also showed a 50% cytotoxic concentration (CC50) in data set [3] of 64 µg/mL (≈ 99 µM).
On the same counts, the results for `CO/N=C1/C(=O)N(Cc2cn(CC(=O)N3CCN(c4cc5c(cc4F)c(=O)c(C(=O)O)cn5C4CC4)CC3)nn2)c2ccc(C)cc21` are 32 µg/mL (≈ 49.8 µM), 0.25 and 8 µg/mL (≈ 12.4 µM).
On the same counts, the results for `CCO/N=C1/C(=O)N(Cc2cn(CC(=O)N3CCN(c4cc5c(cc4F)c(=O)c(C(=O)O)cn5C4CC4)CC3)nn2)c2ccc(F)cc21` are 16 µg/mL (≈ 24.2 µM), 0.5 and 8 µg/mL (≈ 12.1 µM).
In data set [1], `CCO/N=C1/C(=O)N(Cc2cn(CC(=O)N3CCN(c4cc5c(cc4F)c(=O)c(C(=O)O)cn5C4CC4)CC3)nn2)c2ccccc21` displayed an MIC of 32 µg/mL (≈ 49.8 µM). Also, the selectivity ratio in data set [2] amounted to 2. The molecule further showed a CC50 in data set [3] of 64 µg/mL (≈ 99.6 µM).
Molecule `Cc1ccc2c(c1)C(=O)C(=O)N2Cc1cn(CC(=O)N2CCN(c3cc4c(cc3F)c(=O)c(C(=O)O)cn4C3CC3)CC2)nn1` returned an MIC in data set [1] of 1 µg/mL (≈ 1.63 µM). Moreover, the selectivity ratio in data set [2] is 16. The CC50 in data set [3] is 16 µg/mL (≈ 26.1 µM).
`O=C1C(=O)N(Cc2cn(CC(=O)N3CCN(c4cc5c(cc4F)c(=O)c(C(=O)O)cn5C4CC4)CC3)nn2)c2ccccc21` registered a minimum inhibitory concentration (MIC) in data set [1] of 0.5 µg/mL (≈ 0.834 µM). Besides, the Ratio in data set [4] worked out at 2. Also, the selectivity ratio in data set [2] worked out at 32. In data set [3], this molecule returned a CC50 of 16 µg/mL (≈ 26.7 µM).
For the molecule `O=C(O)c1cn(C2CC2)c2cc(N3CCNCC3)c(F)cc2c1=O` [CIPROFLOXACIN], the lowest concentration to inhibit growth in data set [1] (MIC) was 1 µg/mL (≈ 3.02 µM). In data set [2], the selectivity ratio came to 128.
In data set [1], `CCO/N=C1/C(=O)N(Cc2cn(CC(=O)N3CCN(c4cc5c(cc4F)c(=O)c(C(=O)O)cn5C4CC4)CC3)nn2)c2ccc(C)cc21` gave a minimal inhibitory concentration (MIC) of 32 µg/mL (≈ 48.7 µM). Besides, in data set [2], the selectivity ratio amounted to 1. In addition, it took 32 µg/mL (≈ 48.7 µM) to reach half-maximal cytotoxicity in data set [3] (CC50).
The molecule `CO[C@H]1/C=C/O[C@@]2(C)Oc3c(C)c(O)c4c(O)c(c(/C=N/N5CCN(C)CC5)c(O)c4c3C2=O)NC(=O)/C(C)=C\C=C\[C@H](C)[C@H](O)[C@@H](C)[C@@H](O)[C@@H](C)[C@H](OC(C)=O)[C@@H]1C` [RIFAMPIN] showed an MIC in data set [1] of 0.25 µg/mL (≈ 0.304 µM). Besides, the selectivity ratio in data set [2] is 512. The molecule also showed a cytotoxic concentration (CC50) in data set [3] of 128 µg/mL (≈ 156 µM).
The like results for `CO/N=C1/C(=O)N(Cc2cn(CC(=O)N3CCN(c4cc5c(cc4F)c(=O)c(C(=O)O)cn5C4CC4)CC3)nn2)c2c(F)cccc21` were, in that order, 32 µg/mL (≈ 49.5 µM), 1 and 32 µg/mL (≈ 49.5 µM).
The like results for `O=C1C(=O)N(Cc2cn(CC(=O)N3CCN(c4cc5c(cc4F)c(=O)c(C(=O)O)cn5C4CC4)CC3)nn2)c2ccc(F)cc21` were, in that order, 1 µg/mL (≈ 1.62 µM), 32 and 32 µg/mL (≈ 51.8 µM).
On the same counts, the results for `O=C1C(=O)N(Cc2cn(CC(=O)N3CCN(c4cc5c(cc4F)c(=O)c(C(=O)O)cn5C4CC4)CC3)nn2)c2c(F)cccc21` are 4 µg/mL (≈ 6.48 µM), 2 and 8 µg/mL (≈ 13 µM).
On to `CO/N=C1/C(=O)N(Cc2cn(CC(=O)N3CCN(c4cc5c(cc4F)c(=O)c(C(=O)O)cn5C4CC4)CC3)nn2)c2ccccc21`, for which the lowest concentration to inhibit growth in data set [1] (MIC) was 8 µg/mL (≈ 12.7 µM). The selectivity ratio in data set [2] is 16. This molecule showed a CC50 in data set [3] of 128 µg/mL (≈ 204 µM).
On the same counts, the results for `CCO/N=C1/C(=O)N(Cc2cn(CC(=O)N3CCN(c4cc5c(cc4F)c(=O)c(C(=O)O)cn5C4CC4)CC3)nn2)c2c(F)cccc21` are 32 µg/mL (≈ 48.4 µM), 0.5 and 16 µg/mL (≈ 24.2 µM).
